Source: article PMC4864966, “Two unexpected promiscuous activities of the iron–sulfur protein IspH in production of isoprene and isoamylene” (Microbial Cell Factories, 2016)

Test system: T1, IspH
T1 construct: complete ORF in pET-28a(+) NcoI/XhoI, C-terminal His-tag, E. coli BL21(DE3) with isc operon, [4Fe-4S] cluster, Ni-NTA purified anaerobically
Assay: headspace GC of isoamylene (2-methyl-2-butene and 3-methyl-1-butene) formation; Michaelis-Menten and Lineweaver-Burk
Assay type: biochemical, Bacillus sp. N16-5
Conditions: 1 mM NADPH, 20 µM Fd, 5 µM FNR, 2 mM DTT, 20 mM Tris-HCl pH 7.8, 150 mM NaCl, 37 °C, anaerobic; DMAPP 0.1 to 1 mM

Km: ~275 µM
SMILES: CC(C)=CCOP(=O)(O)OP(=O)(O)O [DMAPP]
